As a reminder, the Tmax is the time at which the peak concentration occurs. As a reminder, the AUC(0-inf) is the area under the concentration-time curve extrapolated to infinity. Low values mean low exposure, high ones high exposure. For orientation: AUC(0-t) means the area under the concentration-time curve up to a stated or last time point. Read a high AUC(0-t) as more exposure. The term Cmax denotes the highest concentration seen after dosing.

The values that follow come from patent publication US9682033B2, “Methods of treating postherpetic neuralgia with a topical formulation of a spiro-oxindole compound” (Teva Pharmaceuticals International GmbH, priority 2015, dated 2017).

One data set deals with CYP3A4 (Homo sapiens, UniProt P08684). In words: Drug-drug interaction study in healthy subjects: midazolam (CYP3A4 substrate) pharmacokinetics (Biological Example 5). Particulars: for Tmax / AUC(0-inf) / AUC(0-t) / Cmax: both, human, in vivo; for AUC(0-inf) / AUC(0-t) / Cmax: 3 mg. The source says: (§1) This was a single center, open-label, 1-sequence drug-drug interaction study in 32 healthy adult male and female subjects. The study consisted of a 28-day screening period, a 10-day inpatient treatment period, and a follow-up visit. Subjects meeting the study inclusion/exclusion requirements were admitted to the clinical research unit on day −1 and were confined until day 10.
CYP3A4, sequence (P08684 whole entry): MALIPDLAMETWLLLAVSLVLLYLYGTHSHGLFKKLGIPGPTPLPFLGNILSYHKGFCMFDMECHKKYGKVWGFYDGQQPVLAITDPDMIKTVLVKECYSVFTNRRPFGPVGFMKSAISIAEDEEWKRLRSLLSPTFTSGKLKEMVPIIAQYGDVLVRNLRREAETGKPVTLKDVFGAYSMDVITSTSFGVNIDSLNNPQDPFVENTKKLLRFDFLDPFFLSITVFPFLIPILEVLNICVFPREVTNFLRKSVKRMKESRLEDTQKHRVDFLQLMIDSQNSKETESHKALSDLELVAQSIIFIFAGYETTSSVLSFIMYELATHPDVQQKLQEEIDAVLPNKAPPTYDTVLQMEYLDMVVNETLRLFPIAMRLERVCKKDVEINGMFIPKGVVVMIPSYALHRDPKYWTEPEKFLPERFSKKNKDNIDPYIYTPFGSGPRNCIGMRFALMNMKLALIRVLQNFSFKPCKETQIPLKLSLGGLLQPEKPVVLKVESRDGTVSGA
(§2) Blood samples were collected for the assessment of the pharmacokinetics of midazolam and omeprazole.
(§3) The primary pharmacokinetic endpoints were the geometric mean ratios (90% confidence intervals [CIs]) for Cmax, AUC0-t, and AUC0-inf for midazolam and omeprazole on day 9 versus day 1.
(§4) Blood samples were collected for the assessment of the pharmacokinetics of the major metabolites of midazolam (1-OH-midazolam) and omeprazole (5-OH-omeprazole), and for the spiro-oxindole compound. Further secondary pharmacokinetic variables included Cmax, tmax, AUC0-t, AUC0-inf, CL/F, λz, t1/2, and % AUCext for 1-OH-midazolam and 5-OH-omeprazole, on days 1 and 9, and Cmax, morning predose concentrations (Ctrough), average plasma concentration over the dosing interval (Cave), and area under the plasma concentration-time curve over the dosing interval (AUC0-τ) were presented for the spiro-oxindole compound.
(§5) Descriptive statistics (n, mean, geometric mean, standard deviation [SD], % CV, median, minimum, and maximum) were used to summarize plasma midazolam, omeprazole and their metabolites, and the spiro-oxindole compound concentration for all subjects overall at each scheduled time point. Descriptive statistics (as noted above) were also used to summarize plasma omeprazole, 5-OH-omeprazole, and the spiro-oxindole compound concentration for all subjects overall by CYP2C19 genotype at each scheduled time point. Pharmacokinetic parameters were derived by noncompartmental analysis. Descriptive statistics (as noted above) were used to summarize the calculated pharmacokinetic parameters for midazolam, omeprazole and their metabolites, and the spiro-oxindole compound by treatment for all subjects. Descriptive statistics (as noted above) were also used to summarize the calculated pharmacokinetic parameters for omeprazole, 5-OH-omeprazole, and the spiro-oxindole compound by treatment and CYP2C19 genotype. Plots of geometric mean and individual plasma concentrations and of select pharmacokinetic parameters for midazolam, omeprazole and their metabolites and the spiro-oxindole compound at select sampling times were provided. Additionally, plots of individual select pharmacokinetic parameters by CYP2C19 phenotype for omeprazole at select time points were provided.

The test system of data set [1] is streptozotocin-induced neuropathic pain model. In words: Streptozotocin-induced neuropathic pain model, mechanical allodynia (paw withdrawal threshold). The format is in vivo, rats. The following applies: rats, topical, 30 minutes after the dose. The source says: Topical 4% Test Pharmaceutical Composition was compared with lidocaine and diclofenac for relief of mechanical allodynia in the streptozotocin-induced neuropathic pain model in rats.

A further data set deals with CYP2C19. In words: clinical. Particulars: both, human, in vivo, 20 mg.
Source text: as §1, §2, §3, §4, §5

Where [2] appears, read: 1-OH metabolite after oral midazolam, day 1.
[3] abbreviates: 1-OH metabolite after oral midazolam, day 9.

`Cc1ncc2n1-c1ccc(Cl)cc1C(c1ccccc1F)=NC2` [midazolam, reference compound]: at CYP3A4, the Tmax worked out at 0.75 h, the AUC(0-inf) is 40.7 ng·h/mL, the area under the curve AUC(0-t) was determined as 39.4 ng·h/mL and the highest concentration (Cmax) was determined as 14.6 ng/mL. Also, at CYP3A4 (po), the Tmax stood at 0.63 h, the AUC(0-inf) worked out at 43.8 ng·h/mL, the AUC(0-t) was determined as 42.2 ng·h/mL and the Cmax is 16.9 ng/mL.
As for `O=C(O)Cc1ccccc1Nc1c(Cl)cccc1Cl` [diclofenac], in data set [1], the “paw withdrawal threshold for the drug-treated paw (mechanical hyperalgesia)” value was “no significant increase in threshold”.
For `OCc1ncc2n1-c1ccc(Cl)cc1C(c1ccccc1F)=NC2` [1-OH-midazolam], the “tmax (median)” value at CYP3A4 (1-OH metabolite after oral midazolam, both days 1 and 9) turned out to be 0.75 h. At CYP3A4 (setting [2]), the “AUC0-inf (geometric)” value turned out to be 16.83 ng·h/mL, the “AUC0-t (geometric)” value turned out to be 15.82 ng·h/mL, the “Cmax (geometric mean)” value came to 7.33 ng/mL and the “t1/2 (geometric mean)” value was found to be 4.39 h. Besides, at CYP3A4 (setting [3]), the “AUC0-t (geometric)” value amounted to 17.18 ng·h/mL, the “Cmax (geometric mean)” value came to 6.67 ng/mL and the “t1/2 (geometric mean)” value was 4.68 h.
As to `CCN(CC)CC(=O)Nc1c(C)cccc1C` [lidocaine], the “paw withdrawal threshold for the drug-treated paw (mechanical hyperalgesia)” value in data set [1] is listed as “no significant increase in threshold”.
Consider `COc1ccc2[nH]c([S+]([O-])Cc3ncc(C)c(OC)c3C)nc2c1` (centres unmarked) [omeprazole], for which the Tmax in the data set with CYP2C19 turned out to be 2.5 h. Besides, in the data set on CYP2C19 (po), the “AUC0-inf (geometric mean)” value was 633.97 ng·h/mL, the “AUC0-t (geometric mean)” value was 556.16 ng·h/mL, the “Cmax (geometric mean)” value came out at 227.04 ng/mL and the Tmax turned out to be 2 h. The compound also gave a total exposure AUC(0-inf) in the data set with CYP2C19 (po, AUC0-inf (geometric mean)) of 635 ng·h/mL. Besides, the AUC(0-t) in the data set on CYP2C19 (po, AUC0-t (geometric mean)) amounted to 545 ng·h/mL. Besides, in the data set with CYP2C19 (po, Cmax (geometric mean)), the Cmax is 227 ng/mL.
